# Laboratory results taken from patent publication USRE35281E, “Tetrazole derivatives and aldose reductase inhibition therewith” (Wakamoto Pharmaceutical Co., Ltd., priority 1989, dated 1996).
# How the values were obtained:
# aldose reductase [1] = target: T1, aldose reductase (Rattus norvegicus, UniProt P07943); test: Aldose Reductase Inhibition Test (Experiment 1); format: biochemical, rat (male SD rat crystalline lens); conditions: DL-glycerine aldehyde 10 mM, pH 6.2, 30° C., 5 min; for inhibition at 1 µM: *Concentration of 10^-6 M; for inhibition at 50 µM: final concentration 5×10^-5 M (values without asterisk)
# T1 construct: their crystalline lenses were immediately removed and stored at -80° C; The lenses were homogenized; from tissue; host or cells: crystalline lens of six-week-old male SD rats (homogenate supernatant, dialysed)
# Method: (§1) Six-week-old male SD rats were killed under ether anesthesia and their crystalline lenses were immediately removed and stored at -80° C. The lenses were homogenized in 3 volumes of 135 mM sodium potassium phosphate buffer (pH: 7.0) and centrifuged at a rate of 30,000 rpm for 30 min. The supernatant was dialyzed overnight against 0.05M sodium chloride, to produce an aldose reductase solution. All operations were conducted at 4° C. The enzyme solution was stored at -80° C.
# (§2) The activity of aldose reductase was determined according to a slight modification of the method of J. H. Kinoshita et al [J. Biol. Chem., 240, 877 (1965)]. Namely, 0.1 ml of DL-glycerine aldehyde (final concentration: 10 mM) was added to 0.9 ml of 100 mM sodium potassium phosphate buffer (pH 6.2) which contained lithium sulfate (final concentration: 400 mM), reduced nicotinamide adenine dinucleotide phosphate (final concentration: 0.15 mM), the enzyme solution, and the compound to be tested (final concentration: 5×10^-5 M or 10^-6 M), and then the reaction was conducted at 30° C. for 5 min. […] The maximum reducing rate of the absorbance (U) during the reaction was determined. By substracting, from this value, the maximum reducing rate (Uo) at 340 nm of the reaction solution before the addition of the substrate (DL-glycerine aldehyde), the reaction rate (V) (V=U-Uo) was calculated as a true reaction rate in the presence of the compound to be tested.
# (§3) The same procedure was repeated except for the absence of the compound to be tested. A true reaction rate (Vo) in case the enzyme was not inhibited was calculated (Vo =U'-Uo '). The inhibitory activity of aldose reductase was determined by the following formula. [formula]
# aldose reductase [2] = target: T1, aldose reductase; test: Aldose reductase inhibition, IC50 determination (Experiment 2); format: biochemical, rat (male SD rat crystalline lens); conditions: calculated from inhibitions at three final concentrations; DL-glycerine aldehyde 10 mM, pH 6.2, 30° C.
# Method: as §1, with “The lenses were homogenized in 3 volumes of 135 mM sodium potassium phosphate buffer (pH: 7.0) and centrifuged at a rate of 30,000 rpm for 30 min.” left out
# as §2, with “Namely,” for “The activity of aldose reductase was determined according to a slight modification of the method of J. H. Kinoshita et al [J. Biol. Chem., 240, 877 (1965)]. Namely,”
# as §3
# In the same manner as Experiment 1, the inhibitions at final concentrations of 10^-6, 10^-7 and […] for the compound to be tested were calculated.
smiles,measurement,setting,value
"Cc1ccc(-c2nnnn2CC(=O)O)cc1[N+](=O)[O-] [Compound 3-11, 5-(3-Nitro-4-methylphenyl)-1-tetrazoleacetic acid]",inhibition at 1 µM,aldose reductase [1],92%
same,IC50,aldose reductase [2],42 nM
"CCCCNS(=O)(=O)c1ccc(-c2nnnn2CC(=O)O)cc1 [Compound 3-45, 5-(4-n-Butylaminosulfonylphenyl)-1-tetrazoleacetic acid]",IC50,aldose reductase [2],78 nM
"CCCCOC(=O)C(=O)Nc1ccccc1-c1nnn[nH]1 [Compound 4-2, 5-(2-n-Butyloxalylaminophenyl)tetrazole]",inhibition at 50 µM,aldose reductase [1],69%
"CC(C(=O)O)n1nnnc1-c1ccccc1 (stereo not drawn) [Compound 3-18, 2-(5-Phenyltetrazol-1-yl)propionic acid]",inhibition at 50 µM,aldose reductase [1],91%
"CCCCOC(=O)Cn1nnnc1-c1ccccc1 [Compound 1-4, n-Butyl 5-phenyl-1-tetrazoleacetate]",inhibition at 50 µM,aldose reductase [1],63%
"O=C(O)Cn1nnnc1-c1ccc(Cl)c([N+](=O)[O-])c1 [Compound 3-2, 5-(3-Nitro-4-chlorophenyl)-1-tetrazoleacetic acid]",inhibition at 1 µM,aldose reductase [1],84%
"CCOC(=O)C(=O)Nc1cc(-c2nnn[nH]2)cc(NC(=O)C(=O)OCC)c1Cl [Compound 4-3, 5-(4-Chloro-3,5-diethyloxalylaminophenyl)tetrazole]",inhibition at 50 µM,aldose reductase [1],95%
"O=C(O)Cn1nnnc1-c1ccc(Cl)cc1 [Compound 3-10, 5-(4-Chlorophenyl)-1-tetrazoleacetic acid]",inhibition at 1 µM,aldose reductase [1],85%
"O=C(O)Cn1nnnc1-c1ccc(C(=O)N2CCCCC2)cc1 [Compound 3-38, 5-(4-Piperidinocarbonylphenyl)-1-tetrazoleacetic acid]",IC50,aldose reductase [2],54 nM
"CCCCOC(=O)C(=O)Nc1cccc(-c2nnnn2CC(=O)OCC)c1 [Compound 2-8, Butyl 3'-(1-ethoxycarbonylmethyl-tetrazol-5-yl)oxanilate]",inhibition at 50 µM,aldose reductase [1],52%
"COC(=O)Cn1nnnc1-c1ccccc1 [Compound 1-1, methyl 5-phenyl-1-tetrazoleacetate]",inhibition at 50 µM,aldose reductase [1],92%
"O=C(O)CCCCn1nnnc1-c1ccccc1 [Compound 3-17, 5-(5-Phenyltetrazol-1-yl)valeric acid]",inhibition at 50 µM,aldose reductase [1],68%
"O=C(O)C(=O)Nc1cccc(-c2nnn[nH]2)c1 [Compound 5-1, 3-(1H-Tetrazol-5-yl)oxanilic acid]",inhibition at 50 µM,aldose reductase [1],63%
"O=C(O)Cn1nnnc1-c1ccc(C(=O)O)cc1 [Compound 3-37, 5-(4-Carboxyphenyl)-1-tetrazoleacetic acid]",IC50,aldose reductase [2],82 nM
"COC(=O)Cn1nnnc1-c1cccc([N+](=O)[O-])c1 [Compound 2-4, Methyl 5-(3-nitrophenyl)-1-tetrazoleacetate]",inhibition at 50 µM,aldose reductase [1],30%
"COC(=O)Cn1nnnc1-c1ccc(Cl)cc1 [Compound 2-1, Methyl 5-(4-chlorophenyl)-1-tetrazoleacetate]",inhibition at 50 µM,aldose reductase [1],31%
"O=C(O)Cn1nnnc1-c1ccc(F)cc1 [Compound 3-3, 5-(4-Fluorophenyl)-1-tetrazoleacetic acid]",inhibition at 1 µM,aldose reductase [1],94%
same,IC50,aldose reductase [2],42 nM
"COC(=O)Cn1nnnc1-c1ccc([N+](=O)[O-])cc1 [Compound 2-5, Methyl 5-(4-nitrophenyl)-1-tetrazoleacetate]",inhibition at 50 µM,aldose reductase [1],44%
"COC(=O)Cn1nnnc1-c1ccc(OC)cc1 [Compound 1-8, Methyl 5-(4-methoxyphenyl)-1-tetrazoleacetate]",inhibition at 50 µM,aldose reductase [1],43%
"O=C(O)Cn1nnnc1-c1ccc(-c2nnnn2CC(=O)O)cc1 [Compound 3-13, 1,4-Bis(1-carboxymethyl-tetrazol-5-yl)benzene]",inhibition at 50 µM,aldose reductase [1],94%
same,IC50,aldose reductase [2],27 nM
"CCCN(CCC)C(=O)c1ccc(-c2nnnn2CC(=O)O)cc1 [Compound 3-39, 5-(4-Di-n-propylaminocarbonylphenyl)-1-tetrazoleacetic acid]",IC50,aldose reductase [2],73 nM
"CC(C)(C)c1ccc(-c2nnnn2CC(=O)O)cc1 [Compound 3-26, 5-(4-t-Butylphenyl)-1-tetrazoleacetic acid]",inhibition at 1 µM,aldose reductase [1],94%
same,IC50,aldose reductase [2],27 nM
"CCCCOc1ccc(-c2nnnn2CC(=O)O)cc1 [Compound 3-27, 5-(4-n-Butoxyphenyl)-1-tetrazoleacetic acid]",inhibition at 1 µM,aldose reductase [1],96%
same,IC50,aldose reductase [2],18 nM
"O=C(O)Cn1nnnc1-c1ccc(-c2ccccc2)cc1 [Compound 3-23, 5-(4-Biphenylyl)-1-tetrazoleacetic acid]",inhibition at 1 µM,aldose reductase [1],95%
same,IC50,aldose reductase [2],22 nM
"O=C(O)Cn1nnnc1-c1ccc(Oc2ccccc2)cc1 [Compound 3-25, 5-(4-Phenoxyphenyl)-1-tetrazoteacetic acid]",inhibition at 1 µM,aldose reductase [1],94%
same,IC50,aldose reductase [2],28 nM
"COC(=O)Cn1nnnc1-c1ccc(Cl)c([N+](=O)[O-])c1 [Compound 2-6, Methyl 5-(3-nitro-4-chlorophenyl)-1-tetrazoleacetate]",inhibition at 50 µM,aldose reductase [1],42%
"Cc1cccc(-c2nnnn2CC(=O)O)c1 [Compound 3-5, 5-(3-Methylphenyl)-1-tetrazoleacetic acid]",inhibition at 1 µM,aldose reductase [1],96%
same,IC50,aldose reductase [2],33 nM
"Nc1ccc(-c2nnnn2CC(=O)O)cc1 [Compound 3-40, 5-(4-Aminophenyl)-1-tetrazoleacetic acid]",IC50,aldose reductase [2],41 nM
"COC(=O)Cn1nnnc1-c1ccc(-c2nnnn2CC(=O)OC)cc1 [Compound 2-10, 1,4-Bis(1-methoxycarbonylmethyl-tetrazol-5-yl)benzene]",inhibition at 50 µM,aldose reductase [1],36%
"CCCCc1ccc(-c2nnnn2CC(=O)O)cc1 [Compound 3-14, 5-(4-n-Butylphenyl)-1-tetrazoleacetic acid]",IC50,aldose reductase [2],17 nM
"CSc1ccc(-c2nnnn2CC(=O)O)cc1 [Compound 3-42, 5-(4-Methylthiophenyl)-1-tetrazoleacetic acid]",IC50,aldose reductase [2],37 nM
"O=C(O)Cn1nnnc1-c1ccc(O)cc1 [Compound 3-31, 5-(4-Hydroxyphenyl)-1-tetrazoleacetic acid]",IC50,aldose reductase [2],43 nM
"COc1ccc(-c2nnnn2CC(=O)O)cc1 [Compound 3-7, 5-(4-Methoxyphenyl)-1-tetrazoleacetic acid]",inhibition at 1 µM,aldose reductase [1],95%
same,IC50,aldose reductase [2],48 nM
"CCCCOC(=O)C(=O)Nc1cccc(-c2nnn[nH]2)c1 [Compound 4-1, 5-(3-n-Butyloxalylaminophenyl)tetrazole]",inhibition at 50 µM,aldose reductase [1],58%
"CCCCOc1ccc(-c2nnnn2CC(=O)O)cc1OCCCC [Compound 3-35, 5-(3,4-Di-n-butoxyphenyl)-1-tetrazoleacetic acid]",IC50,aldose reductase [2],33 nM
"O=C(O)CCCn1nnnc1-c1ccccc1 [Compound 3-16, 4-(5-Phenyltetrazol-1-yl)buatyric acid]",inhibition at 50 µM,aldose reductase [1],79%
"CCCCOC(=O)C(=O)Nc1cc(-c2nnn[nH]2)cc(NC(=O)C(=O)OCCCC)c1Cl [Compound 4-4, 5-(4-Chloro-3,5-di-n-butyloxalylaminophenyl)tetrazole]",inhibition at 50 µM,aldose reductase [1],92%
"O=C(O)CCn1nnnc1-c1ccccc1 [Compound 3-15, 3-(5-Phenyltetrazol-1-yl)propionic acid]",inhibition at 50 µM,aldose reductase [1],80%
"CCCCCCCOc1ccc(-c2nnnn2CC(=O)O)cc1 [Compound 3-32, 5-(4-n-Heptoxyphenyl)-1-tetrazoleacetic acid]",IC50,aldose reductase [2],29 nM
"CCCCCCCc1ccc(-c2nnnn2CC(=O)O)cc1 [Compound 3-24, 5-(4-n-Heptylphenyl)-1-tetrazoleacetic acid]",inhibition at 1 µM,aldose reductase [1],96%
same,IC50,aldose reductase [2],17 nM
"COc1ccc(-c2nnnn2CC(=O)O)cc1OC [Compound 3-34, 5-(3,4-Dimethoxyphenyl)-1-tetrazoleacetic acid]",IC50,aldose reductase [2],63 nM
"COc1cccc(-c2nnnn2CC(=O)O)c1 [Compound 3-33, 5-(3-Methoxyphenyl)-1-tetrazoteacetic acid]",IC50,aldose reductase [2],28 nM
"COC(=O)Cn1nnnc1-c1cccc(C)c1 [Compound 1-6, Methyl 5-(3-methylphenyl)-1-tetrazoleacetate]",inhibition at 50 µM,aldose reductase [1],44%
"O=C(O)Cn1nnnc1-c1ccc(CBr)cc1 [Compound 3-41, 5-(4-Bromomethylphenyl)-1-tetrazoleacetic acid]",IC50,aldose reductase [2],20 nM
